Our source for the IC50 values is patent US20100298343A1, “5-LIPOXYGENASE-ACTIVATING PROTEIN (FLAP) INHIBITORS” (priority 2007, published 2010).

As a reminder, the IC50 is the concentration that inhibits the measured activity by half. High values mean lower potency, low ones higher potency.

This experiment has as its target T1, 5-lipoxygenase-activating protein (FLAP) (Homo sapiens, UniProt P20292).
T1 construct: tissue Biological Speciality Corporation; host or cells: human polymorphonuclear cells (100,000 g membranes)
T1 sequence (P20292 1-161): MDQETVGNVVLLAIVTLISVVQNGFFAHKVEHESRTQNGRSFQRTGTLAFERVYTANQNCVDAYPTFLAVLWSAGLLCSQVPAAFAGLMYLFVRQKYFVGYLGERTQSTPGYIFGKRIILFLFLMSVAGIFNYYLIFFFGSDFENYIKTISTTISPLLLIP
The experiment can be described thus: FLAP Binding Assay. The settings on record: human polymorphonuclear cell 100,000 g membranes; 3H MK886 or other radioligand; 30 minutes at room temperature. As for the experimental part:
A non-limiting example of such a FLAP binding assay is as follows:
Packed human polymorphonuclear cell pellets (1.8×10^9 cells) (Biological Speciality Corporation) were resuspended, lysed and 100,000 g membranes prepared as described (Charleson et al. Mol. Pharmacol, 41, 873-879, 1992). 100,000×g pelleted membranes were resuspended in Tris-Tween assay buffer (100 mM Tris HCl pH 7.4, 140 mM NaCl, 2 mM EDTA, 0.5 mM DTT, 5% glycerol, 0.05% Tween 20) to yield a protein concentration of 50-100 μg/mL. 10 μL membrane suspension was added to 96 well Millipore plate, 78 μL Tris-Tween buffer, 10 μL ^3H MK886 or ^3H 3-[5-(pyrid-2-ylmethoxy)-3-tert-butylthio-1-benzyl-indol-2-yl]-2,2-dimethylpropionic acid (or ^125I MK591 derivative Eggler et al, J. Labelled Compounds and Radiopharmaceuticals, 1994, vXXXIV, 1147)) to 30,000 cpm, 2 μL, inhibitor and incubated for 30 minutes at room temperature. 100 μL ice-cold washed buffer was added to the incubation mixture. Plates were then filtered and washed 3× with 200 μL ice cold Tris-Tween buffer, scintillation bottoms sealed, 100 μL scintillant added, shaken for 15 minutes then counted in a TopCount. Specific binding was determined as defined as total radioactive binding minus non-specific binding in the presence of 10 μM MK886. IC50s were determined using Graphpad prism analysis of drug titration curves.
Consider `CSc1c(C(Cc2ccccc2)C(=O)O)n(C)c2ccc(OCc3ccccn3)cc12` (stereo not shown) [Example 9, 2-[1-Methyl-3-methylsulfanyl-5-(pyridin-2-ylmethoxy)-1H-indol-2-yl]-3-phenyl-propionic acid], for which the IC50 is 10 to 100 µM. In turn, `Cn1c(C(Cc2ccccc2)C(=O)O)c(S(C)(=O)=O)c2cc(OCc3ccccn3)ccc21` (stereo not shown) [Example 10, 2-[3-Methanesulfonyl-1-methyl-5-(pyridin-2-ylmethoxy)-1H-indol-2-yl]-3-phenyl-propionic acid] came in with a 50% inhibitory concentration (IC50) of 10 to 100 µM.

Turning to `CCS(=O)(=O)c1c(C(Cc2ccccc2)C(=O)O)n(C)c2ccc(OCc3ccccn3)cc12` (stereo not shown) [Example 11, 2-[3-Ethanesulfonyl-1-methyl-5-(pyridin-2-ylmethoxy)-1H-indol-2-yl]-3-phenyl-propionic acid], the IC50 fell in the range of 10 to 100 µM. Next, `Cc1cnc(COc2ccc3c(c2)c(SC(C)(C)C)c(C(Cc2cnc(C)cn2)C(=O)O)n3C)cn1` (stereo not shown) [Example 37, 2-[3-tert-Butylsulfanyl-1-methyl-5-(5-methyl-pyrazin-2-ylmethoxy)-1H-indol-2-yl]-3-(5-methyl-pyrazin-2-yl)-propionic acid]: 100 to 250 µM.
